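Dose response: 5 concentrations. Exposure: 48 h. Format: 96-well plates. Endpoint: linear interpolation; highest concentration if not reached. TGI marks complete inhibition of growth.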
How the values were obtained:
Assay in all cases: NCI tumour cell line growth inhibition, 48 h
EKVX NSCLC = tested on: EKVX NSCLC
NCI-H460 lung = tested on: NCI-H460 lung
SW-620 colon = tested on: SW-620 colon
HS 578T breast = tested on: HS 578T breast
UO-31 renal = tested on: UO-31 renal
SK-MEL-28 melanoma = tested on: SK-MEL-28 melanoma
BT-549 breast = tested on: BT-549 breast
UACC-62 melanoma = tested on: UACC-62 melanoma
KM12 colon = tested on: KM12 colon
SNB-75 CNS = tested on: SNB-75 CNS
TK-10 renal = tested on: TK-10 renal
SNB-19 CNS = tested on: SNB-19 CNS
RPMI-8226 leukemia = tested on: RPMI-8226 leukemia
NCI/ADR-RES ovarian = tested on: NCI/ADR-RES ovarian
SF-268 CNS = tested on: SF-268 CNS
IGROV1 ovarian = tested on: IGROV1 ovarian
OVCAR-4 ovarian = tested on: OVCAR-4 ovarian
SK-OV-3 ovarian = tested on: SK-OV-3 ovarian
MDA-N = tested on: MDA-N
SR leukemia = tested on: SR leukemia
PC-3 prostate = tested on: PC-3 prostate
SK-MEL-5 melanoma = tested on: SK-MEL-5 melanoma
M14 melanoma = tested on: M14 melanoma
LOX IMVI melanoma = tested on: LOX IMVI melanoma
MALME-3M melanoma = tested on: MALME-3M melanoma
K-562 leukemia = tested on: K-562 leukemia
OVCAR-3 ovarian = tested on: OVCAR-3 ovarian
T-47D breast = tested on: T-47D breast
SN12C renal = tested on: SN12C renal
HCT-116 colon = tested on: HCT-116 colon
A549 NSCLC = tested on: A549 NSCLC
COLO 205 colon = tested on: COLO 205 colon
DU-145 prostate = tested on: DU-145 prostate
RXF 393 renal = tested on: RXF 393 renal
MDA-MB-231 breast = tested on: MDA-MB-231 breast
OVCAR-8 ovarian = tested on: OVCAR-8 ovarian
NCI-H23 lung = tested on: NCI-H23 lung
CAKI-1 renal = tested on: CAKI-1 renal
SF-539 CNS = tested on: SF-539 CNS
HL-60(TB) leukemia = tested on: HL-60(TB) leukemia
HCT-15 colon = tested on: HCT-15 colon
SF-295 CNS = tested on: SF-295 CNS
CCRF-CEM leukemia = tested on: CCRF-CEM leukemia
MDA-MB-435 = tested on: MDA-MB-435
MOLT-4 leukemia = tested on: MOLT-4 leukemia
UACC-257 melanoma = tested on: UACC-257 melanoma
U251 CNS = tested on: U251 CNS
HOP-62 NSCLC = tested on: HOP-62 NSCLC
ACHN renal = tested on: ACHN renal
MCF7 breast = tested on: MCF7 breast
OVCAR-5 ovarian = tested on: OVCAR-5 ovarian
HT29 colon = tested on: HT29 colon
NCI-H522 lung = tested on: NCI-H522 lung
HOP-92 NSCLC = tested on: HOP-92 NSCLC
A498 renal = tested on: A498 renal
SK-MEL-2 melanoma = tested on: SK-MEL-2 melanoma
786-0 renal = tested on: 786-0 renal
HCC-2998 colon = tested on: HCC-2998 colon

COc1ccc(-c2c(C#N)c(NC(=S)NC(=O)c3ccccc3)nc3c2CCCC3)cc1OC
TGI (EKVX NSCLC): 70.4 µM | TGI (NCI-H460 lung): > 100 µM | TGI (SW-620 colon): > 100 µM | TGI (HS 578T breast): > 100 µM | TGI (UO-31 renal): > 100 µM | TGI (SK-MEL-28 melanoma): > 100 µM | TGI (BT-549 breast): > 100 µM | TGI (UACC-62 melanoma): > 100 µM | TGI (KM12 colon): > 100 µM | TGI (SNB-75 CNS): > 100 µM | TGI (TK-10 renal): > 100 µM | TGI (SNB-19 CNS): > 100 µM | TGI (RPMI-8226 leukemia): > 100 µM | TGI (NCI/ADR-RES ovarian): > 100 µM | TGI (SF-268 CNS): > 100 µM | TGI (IGROV1 ovarian): > 100 µM | TGI (OVCAR-4 ovarian): > 100 µM | TGI (SK-OV-3 ovarian): > 100 µM | TGI (MDA-N): > 100 µM | TGI (SR leukemia): > 100 µM | TGI (PC-3 prostate): > 100 µM | TGI (SK-MEL-5 melanoma): > 100 µM | TGI (M14 melanoma): > 100 µM | TGI (LOX IMVI melanoma): > 100 µM | TGI (MALME-3M melanoma): > 100 µM | TGI (K-562 leukemia): > 100 µM | TGI (OVCAR-3 ovarian): > 100 µM | TGI (T-47D breast): 89 µM | TGI (SN12C renal): > 100 µM | TGI (HCT-116 colon): > 100 µM | TGI (A549 NSCLC): > 100 µM | TGI (COLO 205 colon): > 100 µM | TGI (DU-145 prostate): > 100 µM | TGI (RXF 393 renal): 68.1 µM | TGI (MDA-MB-231 breast): > 100 µM | TGI (OVCAR-8 ovarian): > 100 µM | TGI (NCI-H23 lung): > 100 µM | TGI (CAKI-1 renal): > 100 µM | TGI (SF-539 CNS): > 100 µM | TGI (HL-60(TB) leukemia): > 100 µM | TGI (HCT-15 colon): > 100 µM | TGI (SF-295 CNS): > 100 µM | TGI (CCRF-CEM leukemia): > 100 µM | TGI (MDA-MB-435): > 100 µM | TGI (MOLT-4 leukemia): > 100 µM | TGI (UACC-257 melanoma): > 100 µM | TGI (U251 CNS): > 100 µM | TGI (HOP-62 NSCLC): > 100 µM | TGI (ACHN renal): > 100 µM | TGI (MCF7 breast): > 100 µM | TGI (OVCAR-5 ovarian): > 100 µM | TGI (HT29 colon): > 100 µM

NCCc1nc(-c2nc(C(=O)O)cs2)cs1
TGI (EKVX NSCLC): > 100 µM | TGI (NCI-H460 lung): > 100 µM | TGI (SW-620 colon): > 100 µM | TGI (HS 578T breast): > 100 µM | TGI (UO-31 renal): > 100 µM | TGI (NCI-H522 lung): > 100 µM | TGI (SK-MEL-28 melanoma): > 100 µM | TGI (BT-549 breast): > 100 µM | TGI (UACC-62 melanoma): > 100 µM | TGI (KM12 colon): > 100 µM | TGI (SNB-75 CNS): > 100 µM | TGI (TK-10 renal): > 100 µM | TGI (SNB-19 CNS): > 100 µM | TGI (RPMI-8226 leukemia): > 100 µM | TGI (NCI/ADR-RES ovarian): > 100 µM | TGI (SF-268 CNS): > 100 µM | TGI (IGROV1 ovarian): > 100 µM | TGI (OVCAR-4 ovarian): > 100 µM | TGI (SK-OV-3 ovarian): > 100 µM | TGI (MDA-N): > 100 µM | TGI (SR leukemia): > 100 µM | TGI (PC-3 prostate): > 100 µM | TGI (SK-MEL-5 melanoma): > 100 µM | TGI (M14 melanoma): > 100 µM | TGI (LOX IMVI melanoma): > 100 µM | TGI (MALME-3M melanoma): > 100 µM | TGI (K-562 leukemia): > 100 µM | TGI (OVCAR-3 ovarian): > 100 µM | TGI (T-47D breast): > 100 µM | TGI (SN12C renal): > 100 µM | TGI (HCT-116 colon): > 100 µM | TGI (A549 NSCLC): > 100 µM | TGI (COLO 205 colon): > 100 µM | TGI (DU-145 prostate): > 100 µM | TGI (HOP-92 NSCLC): > 100 µM | TGI (RXF 393 renal): > 100 µM | TGI (MDA-MB-231 breast): > 100 µM | TGI (A498 renal): > 100 µM | TGI (SK-MEL-2 melanoma): > 100 µM | TGI (OVCAR-8 ovarian): > 100 µM | TGI (NCI-H23 lung): > 100 µM | TGI (CAKI-1 renal): > 100 µM | TGI (SF-539 CNS): > 100 µM | TGI (HL-60(TB) leukemia): > 100 µM | TGI (786-0 renal): > 100 µM | TGI (HCT-15 colon): > 100 µM | TGI (SF-295 CNS): > 100 µM | TGI (CCRF-CEM leukemia): > 100 µM | TGI (MDA-MB-435): > 100 µM | TGI (MOLT-4 leukemia): > 100 µM | TGI (UACC-257 melanoma): > 100 µM | TGI (U251 CNS): > 100 µM | TGI (HOP-62 NSCLC): > 100 µM | TGI (ACHN renal): > 100 µM | TGI (MCF7 breast): > 100 µM | TGI (OVCAR-5 ovarian): > 100 µM | TGI (HT29 colon): > 100 µM

COc1ccccc1N1C(=O)/C(=C\c2cccc(Oc3ccccc3)c2)SC1c1ccccc1 (stereo unspecified)
TGI (EKVX NSCLC): > 100 µM | TGI (NCI-H460 lung): > 100 µM | TGI (SW-620 colon): 71 µM | TGI (HS 578T breast): > 100 µM | TGI (UO-31 renal): > 100 µM | TGI (NCI-H522 lung): > 100 µM | TGI (SK-MEL-28 melanoma): > 100 µM | TGI (HCC-2998 colon): > 100 µM | TGI (BT-549 breast): > 100 µM | TGI (UACC-62 melanoma): > 100 µM | TGI (KM12 colon): > 100 µM | TGI (SNB-75 CNS): > 100 µM | TGI (TK-10 renal): > 100 µM | TGI (SNB-19 CNS): > 100 µM | TGI (RPMI-8226 leukemia): > 100 µM | TGI (NCI/ADR-RES ovarian): > 100 µM | TGI (SF-268 CNS): > 100 µM | TGI (IGROV1 ovarian): > 100 µM | TGI (OVCAR-4 ovarian): > 100 µM | TGI (SK-OV-3 ovarian): > 100 µM | TGI (MDA-N): 64.6 µM | TGI (SR leukemia): > 100 µM | TGI (PC-3 prostate): > 100 µM | TGI (SK-MEL-5 melanoma): 32.8 µM | TGI (M14 melanoma): > 100 µM | TGI (LOX IMVI melanoma): > 100 µM | TGI (MALME-3M melanoma): > 100 µM | TGI (K-562 leukemia): > 100 µM | TGI (OVCAR-3 ovarian): > 100 µM | TGI (T-47D breast): > 100 µM | TGI (SN12C renal): > 100 µM | TGI (HCT-116 colon): > 100 µM | TGI (A549 NSCLC): > 100 µM | TGI (COLO 205 colon): 55 µM | TGI (DU-145 prostate): > 100 µM | TGI (HOP-92 NSCLC): > 100 µM | TGI (RXF 393 renal): > 100 µM | TGI (MDA-MB-231 breast): > 100 µM | TGI (A498 renal): > 100 µM | TGI (SK-MEL-2 melanoma): > 100 µM | TGI (OVCAR-8 ovarian): > 100 µM | TGI (NCI-H23 lung): 98.1 µM | TGI (CAKI-1 renal): > 100 µM | TGI (SF-539 CNS): > 100 µM | TGI (HL-60(TB) leukemia): 39.4 µM | TGI (786-0 renal): > 100 µM | TGI (HCT-15 colon): > 100 µM | TGI (SF-295 CNS): > 100 µM | TGI (MDA-MB-435): > 100 µM | TGI (MOLT-4 leukemia): > 100 µM | TGI (UACC-257 melanoma): > 100 µM | TGI (U251 CNS): > 100 µM | TGI (HOP-62 NSCLC): > 100 µM | TGI (ACHN renal): > 100 µM | TGI (MCF7 breast): > 100 µM | TGI (OVCAR-5 ovarian): > 100 µM | TGI (HT29 colon): > 100 µM

From PubChem BioAssay (NCI)
